In patent US20170021056A1, “PEPTIDE AMPHIPHILE BIOMATERIALS FOR NERVE REPAIR” (Northwestern University, priority 2015, published 2017):
The star is where a group is joined. Palmitoyl = CCCCCCCCCCCCCCCC(=O)*

How the values were obtained:
[1] = tested on: Schwann cells (cell line RT4-D6P2T); test: Immunocytochemistry of actin and vinculin (focal adhesion protein) of Schwann cells in gels; format: cell-based, rat; conditions: 48 h culture
Experimental: (§1) Cells were purchased from ATCC (cell line RT4-D6P2T) and cultured in Dulbecco's Modified Eagle's Medium (DMEM) with 10% fetal bovine serum (FBS). Cells were cultured to confluence, treated with 0.25% trypsin, centrifuged, and resuspended in PBS for a final concentration of 3500 cells/ml for WST-1 proliferation assays and 10,000 cells/ml for immunocytochemistry (ICC).
(§2) Following completion of the slow cooling, each of the PA solutions was mixed with Schwann cell suspension in a 4:1 ratio. A final cell density of 3500 cells/ml was used for the WST-1 proliferation assays and 10,000 cells/ml for immunocytochemistry studies.
(§3) A […] volume of gelling solution consisting of 20 mM CaCl2, 150 mM NaCl, and 3 mM KCl was pipetted onto a glass slide to form a thin film. The PA-Schwann cell suspensions were then pipetted in […] aliquots onto the thin film, instantly forming a string-like gel, with cells encapsulated within. These cell-embedded gels were maintained free floating in DMEM with 10% FBS in culture plates and incubated at 37° C. Medium was changed every 72 h.
(§4) Volumetric ratios of 1 ml HEPES, 10 ml 10XPBS, 87 ml Collagen 10 mg/mL, and 2 ml Schwann cell PBS suspension were combined and mixed gently. Final cell density of 3500 cells/ml was used for the WST-1 proliferation assays and 10,000 cells/ml, for immunocytochemistry studies. The mixture was then pipetted into a culture well (either a 96-well plate or 2-welled microscopy slides), and after 1 h of curing and solidification at 37° C., medium was added gently to the wells and changed every 3 days.
PA-cell gels along with collagen-cell gels were fabricated through the aforementioned methods at a final cell density of 10,000 cells/ml. […] Specimens were then viewed with confocal microscopy (Confocal SP1 MP-Inverted, Leica Microsystems Inc., Buffalo Grove, Ill.) using oil magnification, and images were recorded.

[2] = tested on: Schwann cells (cell line RT4-D6P2T); test: WST-1 proliferation assay of Schwann cells in PA or collagen gels; format: cell-based, rat; conditions: for Schwann cell proliferation compared to backbone-PA gel: by 7 days of culture; for Schwann cell proliferation (viability measurements) compared to backbone-PA gel: day 1 of culture
Experimental: as §1
In order to synthesize the backbone-PA (consisting of only palmitoyl-VVAAEENH2) (SEQ ID NO: 3), the molecule was dissolved in aqueous 150 mM NaCl, 3 mM KCl, and NaOH solution to obtain a final 1 wt % solution at a pH between 7.2 and 7.4. In order to fabricate mixtures containing epitope-bearing PAs IKVAV (SEQ ID NO: 2) and RGDS (SEQ ID NO: 1) (consisting of palmitoyl-VVAAEE-NH2(SEQ ID NO: 3) with appended peptides, either RGDS (Arg-Gly-Asp-Ser) (SEQ ID NO: 1) or IKVAV (Ile-Lys-Val-Ala-Val) (SEQ ID NO: 2)), the backbone-PA was dissolved in aqueous 150 mM NaCl, 3 mM KCl, and NaOH solution to obtain a 1.33 wt % solution at a pH between 7.2 and 7.4. The epitope-containing PA was then dissolved with the same solution to obtain a 1 wt % solution at a pH between 7.2 and 7.4. The 1.33 wt % PA solution was then mixed in a 3:1 ratio with the 1% bioactive epitope solution creating a final bioactive PA solution of 1 wt % PA and 0.25 wt % bioactive epitope. The three resulting solutions (backbone-PA, RGDS-PA (SEQ ID NO: 1), and IKVAV-PA (SEQ ID NO: 2)) were then heated to 80° C. for 30 min in a water bath and left in the bath for slowcooling to 37° C. overnight (refs. 10,11; herein incorporated by reference in their entireties).
as §2, §3, §4
To evaluate the viability of cells within the gels, WST-1 reagent (Roche Applied Science, Indianapolis, Ind., USA) was used for each PA-cell and collagen gelecell complex. WST-1 assay has been widely used to measure cell proliferation. Aligned PA-cell gels along with collagen-cell gels were fabricated through the aforementioned methods at a final cell density of 3500 cells/ml. Gels were then cultured in 96-well plates for various time periods (days 1, 7, 14, and 21). Following each time point, gels were incubated for 90 min in medium containing 10% WST-1 assay reagent. Following incubation, […] of the conditioned medium were then transferred to a 96-well reading plate, and absorption values were read in a spectrophotometer at 450 nm. Measurements were repeated in sets of four.

| Substance | spatial arrangement of cytoskeletal actin of Schwann cells (actin stain) [1] | Schwann cell proliferation with time in gel ([2]; days 1, 7, 14, 21) | actin appearance, RGDS-PA compared with IKVAV-PA gels [1] | Schwann cell proliferation compared to backbone-PA gel [2] | Schwann cell proliferation (viability measurements) compared to backbone-PA gel [2] | time over which Schwann cell proliferation was statistically increased vs. backbone-PA ([2]; p<0.05, ANOVA and Tukey-Kramer) | Schwann cell proliferation, rank among all groups ([2]; through 21 days of culture) | day at which Schwann cell growth was maximal ([2]; no significant expansion or contraction at day 21) |
| --- | --- | --- | --- | --- | --- | --- | --- | --- |
| palmitoyl-VVAAEENH2 (Palmitoyl-VVAAEE-NH2) [backbone-PA] | marked linear arrangement | increasing proliferation with time |  |  |  |  |  |  |
| RGDS-PA: palmitoyl-VVAAEE-NH2 with appended RGDS (Arg-Gly-Asp-Ser), mixed with backbone-PA: 1 wt % PA and 0.25 wt % bioactive epitope |  |  | no significant difference | significantly higher | proliferated more rapidly | ≤ 21 days | highest among all groups |  |
| IKVAV-PA: palmitoyl-VVAAEE-NH2 with appended IKVAV (Ile-Lys-Val-Ala-Val), mixed with backbone-PA: 1 wt % PA and 0.25 wt % bioactive epitope |  |  | no significant difference | significantly higher | proliferated more rapidly |  |  | 14 days |
